This is an account of results in patent publication US20100062465A1, “Detection of Histone Deacetylase Inhibition” (priority 2006, published 2010).

Each structure is given as a SMILES string. Structures can show the parent of a compound that is named as a salt.

The test system of the data set is subcutaneous PC3 tumors. Kind of data set: In vivo 19F MRS of BLT in subcutaneous PC3 tumors. As to conditions: intraperitoneal 100 mg/kg, 4.7 T. As to the method: As expected, the TFA peak could not be easily resolved in our preliminary in vivo studies. Intratumoral BLT levels may be higher in HDACI-treated tumors compared to controls, and therefore tumoral BLT levels may be used to assess HDAC activity in vivo. Downstream metabolic biomarkers also may be assessed in our preliminary studies. We were able to acquire a ^31P spectrum from PC3 subcutaneous tumors in 30 minutes providing a means for monitoring PC levels. This is consistent with previous studies in which an increase in PC could be monitored as an indicator of response to 17AAG treatment. ^1H MRS, with its greater sensitivity compared to ^31P, could also be used to monitor the total choline signal as a downstream metabolic marker of response to HDAC inhibition.

As for `CC(C)(C)OC(=O)N[C@@H](CCCCNC(=O)C(F)(F)F)C(=O)O` [BLT, Boc-Lys-TFA-OH], the “Time the BLT signal remained detectable within the tumor region” value is given as “over 2 hours”. The “MRS detectability in tumor” value (temporal resolution 5 minutes) is recorded as “MRS visible BLT signal”.
